Results taken from US10526316B2, “Quinoxaline and pyridopyrazine derivatives as PI3Kβ inhibitors” (Janssen Pharmaceutica NV, priority 2015, dated 2020).
Read-outs that look alike come from different tables or passages of the source.

Tests used:
[1] = test system: Akt phosphorylated at Thr308 in PC-3 cells; test: Cellular assay: phosphorylation of Akt at Thr308 in PC-3 cells (MSD ELISA); type: cell-based; conditions: PC-3 cells, 60 min compound incubation, MSD ELISA, read-out: IC50 pAkt_Thr308
Summary of the method: (§1)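 After lysis of treated cells (60 min, 37° C, 0.3% DMSO), phospho-Akt levels were measured by MSD electrochemiluminescence ELISA. Potency was derived from concentration-response curves fitted over five concentrations.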

[2] = molecular target: T1, PI3Kβ (Homo sapiens, UniProt P42338); test: Enzyme binding assay (KINOMEscan, DiscoveRx); conditions: PIK3Cβ_h, read-out: Kd PIK3Cβ_h
T1 construct: purchased DiscoveRx Corporation, San Diego (contract service, KINOMEscan)
Summary of the method: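 Reported Kd (nM) reflects inhibitor binding to the kinase, as measured by KINOMEscan technology.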

[3] = molecular target: T2, PI3Kδ (Homo sapiens, UniProt O00329); test: Enzyme binding assay (KINOMEscan, DiscoveRx); conditions: PIK3Cδ_h
T2 construct: purchased DiscoveRx Corporation, San Diego (contract service, KINOMEscan)
T2 sequence (O00329 1-1044): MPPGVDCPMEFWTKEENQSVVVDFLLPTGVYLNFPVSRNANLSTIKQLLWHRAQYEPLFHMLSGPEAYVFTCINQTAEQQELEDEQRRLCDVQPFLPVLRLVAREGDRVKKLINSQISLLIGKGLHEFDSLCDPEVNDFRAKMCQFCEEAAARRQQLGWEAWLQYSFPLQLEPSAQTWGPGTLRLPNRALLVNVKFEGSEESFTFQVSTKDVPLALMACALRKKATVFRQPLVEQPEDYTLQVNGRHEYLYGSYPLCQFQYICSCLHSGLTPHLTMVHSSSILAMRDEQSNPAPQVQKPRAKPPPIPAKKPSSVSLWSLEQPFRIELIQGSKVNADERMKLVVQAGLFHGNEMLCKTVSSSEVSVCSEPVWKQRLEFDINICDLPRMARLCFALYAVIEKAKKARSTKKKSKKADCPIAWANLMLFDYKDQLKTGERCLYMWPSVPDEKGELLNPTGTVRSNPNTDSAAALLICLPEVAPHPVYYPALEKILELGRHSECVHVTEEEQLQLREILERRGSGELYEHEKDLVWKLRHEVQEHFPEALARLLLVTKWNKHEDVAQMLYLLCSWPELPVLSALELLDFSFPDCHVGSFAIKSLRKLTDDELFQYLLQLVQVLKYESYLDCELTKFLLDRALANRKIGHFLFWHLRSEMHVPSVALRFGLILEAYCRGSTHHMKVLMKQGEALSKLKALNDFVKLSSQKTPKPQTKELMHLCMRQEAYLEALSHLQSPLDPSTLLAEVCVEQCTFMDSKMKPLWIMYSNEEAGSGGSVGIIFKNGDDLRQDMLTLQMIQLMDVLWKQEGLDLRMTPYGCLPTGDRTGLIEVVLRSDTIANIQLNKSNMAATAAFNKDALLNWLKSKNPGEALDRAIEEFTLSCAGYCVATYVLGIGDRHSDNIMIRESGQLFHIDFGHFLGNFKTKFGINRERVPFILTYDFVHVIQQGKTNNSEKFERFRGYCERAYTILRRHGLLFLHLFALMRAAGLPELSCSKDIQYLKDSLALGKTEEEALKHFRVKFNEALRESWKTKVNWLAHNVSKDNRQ
Summary of the method: (§2)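 Kinase binding measured via KINOMEscan, reported as affinity.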

[4] = test system: Akt phosphorylated at Ser473 in PC-3 cells; test: Cellular assay: phosphorylation of Akt at Ser473 in PC-3 cells (MSD ELISA); type: cell-based; conditions: PC-3 cells, 60 min compound incubation, MSD ELISA, read-out: IC50 pAkt_S473
Summary of the method: as §1

[5] = molecular target: T3, kinase enzymes (Homo sapiens, UniProt P42345); test: Enzyme binding assay (KINOMEscan, DiscoveRx), further kinases of Table A; conditions: MTOR_h
T3 construct: purchased DiscoveRx Corporation, San Diego (contract service, KINOMEscan)
Summary of the method: as §2

[6] = molecular target: T4, kinase enzymes (Homo sapiens, UniProt P48736); test: as above; conditions: PIK3Cγ_h
T4 construct: purchased DiscoveRx Corporation, San Diego (contract service, KINOMEscan)
Summary of the method: as §2

[7] = molecular target: T5, kinase enzymes (Homo sapiens, UniProt P42336); test: as above; conditions: PIK3Cα_h
T5 construct: purchased DiscoveRx Corporation, San Diego (contract service, KINOMEscan)
Summary of the method: as §2

T1 sequence (P42338 whole entry): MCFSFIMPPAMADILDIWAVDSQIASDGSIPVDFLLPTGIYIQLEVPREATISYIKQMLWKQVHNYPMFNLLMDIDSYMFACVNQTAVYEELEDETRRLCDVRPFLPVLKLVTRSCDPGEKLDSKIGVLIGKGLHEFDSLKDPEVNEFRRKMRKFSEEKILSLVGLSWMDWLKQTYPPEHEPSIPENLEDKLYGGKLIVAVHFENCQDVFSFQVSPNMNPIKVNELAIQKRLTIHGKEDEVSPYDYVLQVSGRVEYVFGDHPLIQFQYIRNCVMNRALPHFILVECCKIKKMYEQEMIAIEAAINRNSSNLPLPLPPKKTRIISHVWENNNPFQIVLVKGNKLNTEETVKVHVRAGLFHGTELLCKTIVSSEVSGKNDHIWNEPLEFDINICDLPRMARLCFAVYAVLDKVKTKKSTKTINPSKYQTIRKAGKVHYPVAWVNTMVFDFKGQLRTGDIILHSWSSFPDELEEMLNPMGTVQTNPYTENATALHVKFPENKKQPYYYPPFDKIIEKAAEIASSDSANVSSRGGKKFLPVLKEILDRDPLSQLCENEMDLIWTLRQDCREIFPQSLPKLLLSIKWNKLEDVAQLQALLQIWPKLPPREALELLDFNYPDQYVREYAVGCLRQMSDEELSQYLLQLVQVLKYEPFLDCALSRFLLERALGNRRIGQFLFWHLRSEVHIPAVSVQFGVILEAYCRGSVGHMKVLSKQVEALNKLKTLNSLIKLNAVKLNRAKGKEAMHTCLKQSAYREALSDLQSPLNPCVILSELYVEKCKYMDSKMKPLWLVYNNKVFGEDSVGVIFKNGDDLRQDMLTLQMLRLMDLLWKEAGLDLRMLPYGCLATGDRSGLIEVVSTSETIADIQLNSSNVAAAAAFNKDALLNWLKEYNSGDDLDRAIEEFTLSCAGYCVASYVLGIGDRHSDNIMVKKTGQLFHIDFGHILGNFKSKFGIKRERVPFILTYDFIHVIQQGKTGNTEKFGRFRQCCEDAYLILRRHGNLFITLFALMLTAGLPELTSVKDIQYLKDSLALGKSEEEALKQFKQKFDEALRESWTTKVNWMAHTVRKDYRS
T4 sequence (P48736 whole entry): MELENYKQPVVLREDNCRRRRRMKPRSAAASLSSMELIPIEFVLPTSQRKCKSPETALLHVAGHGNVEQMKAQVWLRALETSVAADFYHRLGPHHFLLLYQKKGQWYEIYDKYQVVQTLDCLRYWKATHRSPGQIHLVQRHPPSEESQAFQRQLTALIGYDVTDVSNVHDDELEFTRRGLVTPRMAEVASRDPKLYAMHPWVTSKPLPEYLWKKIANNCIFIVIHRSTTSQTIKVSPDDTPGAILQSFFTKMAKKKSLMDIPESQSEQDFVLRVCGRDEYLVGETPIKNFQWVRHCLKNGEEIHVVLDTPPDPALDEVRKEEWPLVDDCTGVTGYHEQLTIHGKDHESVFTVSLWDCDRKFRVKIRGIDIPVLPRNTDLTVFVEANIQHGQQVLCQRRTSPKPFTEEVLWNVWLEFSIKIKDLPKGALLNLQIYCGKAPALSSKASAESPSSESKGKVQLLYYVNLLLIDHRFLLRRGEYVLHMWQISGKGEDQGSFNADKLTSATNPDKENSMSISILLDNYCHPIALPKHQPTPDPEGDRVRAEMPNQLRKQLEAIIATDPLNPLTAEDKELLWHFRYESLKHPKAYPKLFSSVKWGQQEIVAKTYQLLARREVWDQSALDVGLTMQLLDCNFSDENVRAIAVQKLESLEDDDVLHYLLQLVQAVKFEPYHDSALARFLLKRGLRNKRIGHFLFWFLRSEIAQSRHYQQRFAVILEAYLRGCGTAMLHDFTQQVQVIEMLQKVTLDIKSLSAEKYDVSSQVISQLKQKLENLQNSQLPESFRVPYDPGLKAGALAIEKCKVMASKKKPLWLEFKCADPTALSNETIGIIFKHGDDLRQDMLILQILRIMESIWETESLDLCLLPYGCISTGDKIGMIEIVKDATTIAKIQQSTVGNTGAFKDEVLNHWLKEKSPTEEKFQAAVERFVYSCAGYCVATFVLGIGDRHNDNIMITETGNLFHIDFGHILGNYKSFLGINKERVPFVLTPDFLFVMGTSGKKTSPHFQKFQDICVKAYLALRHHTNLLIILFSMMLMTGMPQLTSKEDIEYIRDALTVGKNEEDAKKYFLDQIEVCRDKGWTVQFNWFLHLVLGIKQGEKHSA
T5 sequence (P42336 whole entry): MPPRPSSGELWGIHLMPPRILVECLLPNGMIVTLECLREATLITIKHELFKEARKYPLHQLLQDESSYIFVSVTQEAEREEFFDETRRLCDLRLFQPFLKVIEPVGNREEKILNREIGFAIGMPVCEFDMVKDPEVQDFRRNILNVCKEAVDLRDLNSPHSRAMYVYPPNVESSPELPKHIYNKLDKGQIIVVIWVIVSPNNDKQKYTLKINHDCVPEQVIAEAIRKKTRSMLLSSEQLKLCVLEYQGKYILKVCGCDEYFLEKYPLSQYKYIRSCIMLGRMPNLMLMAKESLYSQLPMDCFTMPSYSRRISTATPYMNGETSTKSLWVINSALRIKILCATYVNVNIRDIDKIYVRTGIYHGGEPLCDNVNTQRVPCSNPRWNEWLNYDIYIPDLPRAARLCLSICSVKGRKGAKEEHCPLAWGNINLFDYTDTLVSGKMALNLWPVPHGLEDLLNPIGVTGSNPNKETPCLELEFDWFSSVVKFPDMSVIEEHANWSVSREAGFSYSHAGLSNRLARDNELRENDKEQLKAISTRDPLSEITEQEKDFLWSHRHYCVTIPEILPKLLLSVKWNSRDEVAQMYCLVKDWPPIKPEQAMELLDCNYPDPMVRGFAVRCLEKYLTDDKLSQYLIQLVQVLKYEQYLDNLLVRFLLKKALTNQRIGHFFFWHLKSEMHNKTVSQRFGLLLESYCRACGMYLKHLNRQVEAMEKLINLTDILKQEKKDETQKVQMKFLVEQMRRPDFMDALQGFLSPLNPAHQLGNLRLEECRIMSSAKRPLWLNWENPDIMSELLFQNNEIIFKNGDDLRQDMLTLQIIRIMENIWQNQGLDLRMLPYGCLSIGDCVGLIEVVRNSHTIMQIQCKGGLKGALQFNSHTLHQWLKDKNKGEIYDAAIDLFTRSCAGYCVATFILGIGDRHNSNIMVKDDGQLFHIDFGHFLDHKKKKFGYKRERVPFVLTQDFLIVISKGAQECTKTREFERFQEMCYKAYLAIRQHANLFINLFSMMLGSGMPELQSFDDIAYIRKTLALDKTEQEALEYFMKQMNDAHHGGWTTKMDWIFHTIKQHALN

| Structure (SMILES) | melting point [°C] | IC50 ([1]; Homo sapiens, PC-3, 1 h) [nM] | Kd [2] [nM] | Kd [3] [nM] | IC50 ([4]; Homo sapiens, PC-3, 1 h) [nM] | Kd [5] [nM] | Kd [6] [nM] | Kd [7] [nM] | IC50 [1] [nM] | IC50 [4] [nM] |
| --- | --- | --- | --- | --- | --- | --- | --- | --- | --- | --- |
| C[C@H](CO)NCc1cc(F)cc(N2CCCC2c2cc(C(=O)N(C)C)cc3ncc(N4CCOCC4)nc23)c1 (mixture of isomers) [Compound 48] | 80 | ~457 | 28 | 724 | > 513 | > 30200 | 14800 | 2460 | – | – |
| CC(Nc1ccc(F)c(F)c1)c1cc(C(=O)N(C)C2CCNC2)cc2ncc(N3CCOCC3)nc12 (centres unmarked) [Compound 322b] | 80 | – | 0.3 | 68 | – | > 30200 | 6170 | 2190 | 26 | 42 |
| CC(Nc1cc(F)cc(F)c1)c1cc(CO)cc2ncc(N3CCOCC3)nc12 (centres unmarked) [Compound 84] | 80 | 32 | 1 | 96 | 56 | 8510 | 1290 | 692 | – | – |
| CC1CN(c2cnc3cc(C(=O)N(C)C)cc(C(C)Nc4cccc(F)c4)c3n2)CCO1 (centres unmarked) [Compound 136] | 184 | 65 | 3 | 355 | 178 | 15100 | 5130 | 2340 | – | – |
| COc1cccc(N2CCCC2c2cc(C(=O)N(C)C)cc3ncc(N4CCOCC4)nc23)c1 (centres unmarked) [Compound 41] | 80 | 22 | 1 | 141 | 31 | > 30200 | 1380 | 389 | – | – |
| CC(Nc1cc(F)cc(F)c1)c1cc(CN2CCn3nccc3C2)cc2ncc(N3CCOCC3)nc12 (single isomer, unassigned) [Compound 222] | 163 | – | 759 | > 30200 | – | > 30200 | > 30200 | > 30200 | > 513 | > 513 |
| CN(C)C(=O)c1cc(C2CCCN2c2cccc(C(F)(F)F)c2)c2nc(N3CCOCC3)cnc2c1 (centres unmarked) [Compound 52] | 80 | 240 | 38 | 4900 | > 513 | > 30200 | 13800 | 6170 | – | – |
| CC(Nc1cc(F)cc(F)c1)c1cc(C(=O)N2CCOCC2)cc2ncc(N3CCOCC3)nc12 (single isomer, unassigned) [Compound 8] | 100 | – | 1 | 109 | – | 20900 | 3860 | 396 | 20 | 25 |
| CN(C)C(=O)c1cc(C2CCCN2c2ccc(F)cc2)c2nc(N3CCOCC3)cnc2c1 (centres unmarked) [Compound 42] | 80 | 11 | 1 | 56 | 16 | > 30200 | 1480 | 331 | – | – |
| CC(Nc1cccc(F)c1)c1cc(C(=O)N2CCOCC2)cc2ncc(N3CCOCC3)nc12 (centres unmarked) [Compound 104] | 80 | 55 | 3 | 263 | 110 | > 30200 | 17800 | 1350 | – | – |
| CC(Nc1cc(F)cc(F)c1)c1cc(C(=O)O)cc2ncc(N3CCOCC3)nc12 (single isomer, unassigned) [Compound 83c] | 157 | – | 158 | 4900 | – | 3090 | 2690 | 3090 | > 513 | > 513 |
| CN[C@@H]1CCN(C(=O)c2cc(C(C)Nc3ccc(F)c(F)c3)c3nc(N4CCOCC4)cnc3c2)C1 (single isomer, unassigned) [Compound 371b] | 107 | – | 20 | 5010 | – | > 30200 | 11000 | 12600 | 251 | > 513 |
| CNCCNC(=O)c1cc([C@@H](C)Oc2cccc(F)c2)c2nc(N3CCOCC3)cnc2c1 [Compound 122a] | 116 | – | 3 | 660 | – | 14100 | 7970 | 3700 | 9 | 12 |
| Cc1c(F)cccc1CN(C)c1cc(C(=O)N2CC3(C2)CS(=O)(=O)C3)cc2ncc(N3CCOCC3)nc12 [Compound 308] | 195 | > 513 | 324 | 7240 | > 513 | > 30200 | > 30200 | > 30200 | – | – |
| CC(Nc1cc(F)cc(F)c1)c1cc(C(=O)N2CCNC(C(F)(F)F)C2)cc2ncc(N3CCOCC3)nc12 (single isomer, unassigned) [Compound 237a] | 120 | – | 1 | 204 | – | > 30200 | 5010 | 105 | 4 | 6 |
| CN(C(=O)c1cc(NCc2cc(F)cc(F)c2)c2nc(N3CCOCC3)cnc2c1)[C@@H]1CCNC1 [Compound 355] | 80 | 437 | 13 | 2880 | > 513 | 13200 | 20900 | 4790 | – | – |
| CC(Oc1cc(F)cc(F)c1)c1cc(-c2cnc[nH]2)cc2ncc(N3CCOCC3)nc12 (single isomer, unassigned) [Compound 21] | 184 | ~501 | 63 | 2240 | 513 | 20000 | 15800 | 4790 | – | – |
| OC(CN1CCC1)c1cc(C2CCCN2c2cc(F)cc(F)c2)c2nc(N3CCOCC3)cnc2c1 (single isomer, unassigned) [Compound 94] | 80 | 12 | 0.1 | 29 | – | 21400 | 178 | 79 | – | 8 |
| NCc1cc(C2CCCN2c2cc(F)cc(F)c2)c2nc(N3CCOCC3)cnc2c1 (centres unmarked) [Compound 96] | 80 | 20 | 0.4 | 83 | 25 | 17400 | 302 | 363 | – | – |
| CC(Nc1cc(F)cc(F)c1)c1cc(C(=O)O)cc2ncc(N3CCOCC3)nc12 (centres unmarked) [Compound 83a] | 240 | – | 2 | 158 | – | 1320 | 813 | 112 | > 513 | > 513 |
| CC(C)NCCNC(=O)c1cc(C(C)Nc2cc(F)c(F)c(F)c2)c2nc(N3CCOCC3)cnc2c1 (single isomer, unassigned) [Compound 283a] | 173 | 52 | 7 | 1550 | 81 | > 30200 | 19100 | 12000 | – | – |
| CC(Oc1cc(F)cc(F)c1)c1cc(C(=O)NCCO)cc2ncc(N3CCOCC3)nc12 (centres unmarked) [Compound 198] | 171 | 200 | 22 | 3160 | > 513 | > 30200 | 15500 | 11200 | – | – |
